Reference: patent US20040072750A1, “Compounds and methods for the modulation of CD154” (priority 2001, published 2004)
Bridge positions count the residues as written; N and C are the ends. Square brackets hold non-standard residues; d marks the D form. Peptide text beside a SMILES is read from it. hArg = N=C(N)NCCCC[C@H](N)C(=O)O; Mpa = O=C(O)CCS

Tests used:
washed platelets [1] = assay: Western blot analysis of immunoprecipitated platelet CD154 (hydrolysis to 18 kDa sCD154); type: cell-based, human
Text: As previously described, CD154 exists as a 33/31 kDa doublet in unstimulated platelets.

CD154−/− mice = assay: Intravital microscopy thrombosis model of the mouse mesentery (FeCl3-injured arteriole); type: in vivo; details: single dose 26 μg/mouse, 5 to 10 minutes before arteriole injury
Experimental: The role of CD154 in thrombus formation was investigated using a model that compares wild type (WT) mice with CD154−/− mice that have impaired thrombosis. […] It was observed that the occlusion time is approximately twice as long in the CD 154−/− mouse as in wild type, apart from any other treatment effect.
In this example, the recombinant form of the soluble CD154 was infused into the CD154−/− mouse. Thrombus formation was evaluated using the model as described below.
To perform the investigation, the intravital microscopy thrombosis model of the mouse mesentery was used (Denis et al., PNAS, 95:9524-9, (1998)). The interactions of fluorescently-labeled platelets with a FeCl3-injured arteriolar vessel wall (shear rate ˜1300 s^−1) were analyzed. […]
Immediately after infusion of fluorescent platelets into mice of matching genotypes (4- to 5-weeks old C57BL6J and CD154−/−), animals were anesthetized with 2.5% tribromoethanol (0.15 mL/10 g). […] The shear rate (1000 to 1300 s^−1) was calculated using an optical Doppler velocimeter using known methods (see, e.g., Blood, November 2000). […]
Resting blood vessel was recorded for 2 minutes, then Ferric Chloride (30 μl of a 250-mM solution) was superfused, and video recording was resumed for another 40 minutes, or until full occlusion occurred and lasted for more than 10 seconds. […]

washed platelets [2] = assay: β3 integrin tyrosine-759 phosphorylation staining of platelets spread on sCD154; type: cell-based, human; details: platelets spread on 10 μg/ml sCD154 coated cover slips
Experimental: Further, cover slips were coated with 10 μg/ml sCD154 for 2 hours at 37° C. and blocked with 5% crystalline BSA (Sigma chemicals). 100 μl of washed platelets at 10^7/ml were allowed to spread for 1 hour at 37° C. Non-adhered platelets were washed off with PBS. Adhered platelets were fixed with 4% para-formaldehyde and permeabilized with 0.5% Triton X-100 and 0.5% BSA in PBS. Permeabilized platelets were blocked with 3% goat serum and 2% BSA for 30 min. followed by incubation with a IIIa(p3) integrin cytoplasmic tyrosine-759 phospho-specific polyclonal antibody for 2 hours at room temperature. After 30 minutes washing with PBS containing 0.1% Triton X-100 and 0.5% BSA, the coverslips were incubated with a Alexa 596 goat anti-rabbit antibody and Alexa fluor 488 phalloidin for 40 min. followed by a brief wash and mounted on slides with VECTASHIELD (Vector laboratories, Burlingame, Calif.). Images were recorded using a digital camera, Hamamatsu, ORCA-ER attached to a Nikon fluorescence microscope, eclipse E1000 (Technical Instruments, San Francisco, Calif.). […] The staining was inhibited by β3 759 phospho-peptide confirming the specificity of the antibody (FIG. 11b).

Row | Molecule | hydrolysis of CD154 and release of sCD154 from stimulated platelets (washed platelets [1]; 5 μmol/L TRAP plus 2.5 μmol/L eptifibatide, 30 minutes) | CD154 hydrolysis and appearance of the soluble 18 kDa fragment (washed platelets [1]; TRAP aggregation, 5 μM eptifibatide) | thrombotic process (occlusion) in CD154−/− mice (CD154−/− mice) | staining with β3 integrin 759-tyrosine phosphospecific antibody (washed platelets [2])
1 | N=C(N)NCCCC[C@@H]1NC(=O)CCSSC[C@@H](C(N)=O)NC(=O)[C@@H]2CCCN2C(=O)[C@H](Cc2c[nH]c3ccccc23)NC(=O)[C@H](CC(=O)O)NC(=O)CNC1=O [eptifibatide] ([Mpa][hArg]GDWPC-NH2; disulfide 1-7) | inhibited | prevented |  | 
2 | rsCD154: bacterially expressed recombinant human soluble CD154 (108 a.a-261 a.a.), 18-kDa protein (protein) ENSFEMQKGDQNPQIAAHVISEASSKTTSVLQWAEKGYYTMSNNLVTLENGKQLTVKRQGLYYIYAQVTFCSNREASSQAPFIASLCLKSPGRFERILLRAANTHSSAKPCGQQSIHLGGVFELQPGASVFVNVTDPSQVSHGTGFTSFGLLKL |  |  | reconstitute a normal thrombotic process | stained positive
